Results: the supplement of paper PMC4858399

Tests used:
Conditions in all cases: exposure time 48 h
[1] = system: Caenorhabditis elegans N2; experiment: AC50 for larval growth inhibition (Hill fit); higher = less potent
Summary of the method: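 Synchronised C. elegans N2 L1 larvae, 50 per well in 96-well plates, were grown at 20°C for 48 h in K-medium with killed OP50, 1% DMSO and 0.5–200 µM chemical. Worm size was read on a COPAS Biosort as extinction, log-transformed and averaged per well, and only wells holding at least 10 worms were kept. AC50 was obtained by a constrained Hill fit using weighted genetic-algorithm regression, with out-of-range values censored.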

[2] = system: Caenorhabditis elegans N2; experiment: lowest effective concentration for larval growth inhibition (size below effect threshold); higher = less potent
Summary of the method: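 In 96-well plates, 50 C. elegans N2 L1 larvae per well were cultured at 20°C for 48 h in K-medium with killed bacteria and 1% DMSO, plus the chemical at 0.5, 1, 5, 10, 50, 100 or 200 µM. Size was measured as per-worm extinction on a Biosort and log-transformed into well means. Taking the first dose where the plate-adjusted mean size sits under 5.665 and stays there at higher doses gives the lowest effective concentration.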

[3] = system: Caenorhabditis elegans N2; experiment: mean nematode size ln(EXT) after 48 h, plate-adjusted (DMSO control set to 6) (ln(EXT), control-adjusted); higher = larger nematodes / less growth inhibition
Summary of the method: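 In K-medium with killed OP50, 1% DMSO and 0.5–200 µM chemical, synchronised N2 L1 larvae of C. elegans (50 per well) grew for 48 h at 20°C. Extinction was read for every worm on the Biosort, with debris removed by a growth model. Natural-log values averaged per well gave mean size, which was corrected per plate by subtracting the vehicle control mean and adding 6.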

SMILES	AC50 for larval growth inhibition [1] [µM]	lowest effective concentration [2] [µM]	mean nematode size ln(EXT) (ln) ([3]; 0.5 µM)	mean nematode size ln(EXT) (ln) ([3]; 1 µM)	mean nematode size ln(EXT) (ln) ([3]; 5 µM)	mean nematode size ln(EXT) (ln) ([3]; 10 µM)	mean nematode size ln(EXT) (ln) ([3]; 50 µM)	mean nematode size ln(EXT) (ln) ([3]; 100 µM)	mean nematode size ln(EXT) (ln) ([3]; 200 µM)
CC(C)c1nnc2ccc(-c3ocnc3-c3cc(F)ccc3F)cn12	> 200	200	5.79	5.88	5.84	5.82	5.82	5.79	5.53
CC(c1ccc(O)cc1)(c1ccc(O)cc1)c1ccc(O)cc1 [4,4’,4"-Ethane-1,1,1-triyltriphenol]	79.3	100	5.76	6.01	5.91	5.91	5.87	5.39	5.19
O=[N+]([O-])c1cc(C(F)(F)F)c(Cl)c([N+](=O)[O-])c1Nc1ncc(C(F)(F)F)cc1Cl [Fluazinam]	31.6	50	6.05	6.17	5.81	6.15	3.61	3.85	3.23
NC(=O)N/N=C/c1ccc([N+](=O)[O-])o1 [5-Nitro-2-furaldehyde semicarbazone]	> 200	50	5.78	5.76	5.75	5.76	5.65	5.61	5.24
Nc1ccc(S(=O)(=O)c2ccc(N)cc2)cc1 [4-Aminophenyl sulfone]	> 200	200	5.93	5.92	5.94	5.86	5.83	5.8	5.56
CCC(CC)Nc1c([N+](=O)[O-])cc(C)c(C)c1[N+](=O)[O-] [Pendimethalin]	> 200	200	5.89	5.93	5.86	5.77	5.86	6.13	5.44
O=C(N[C@H]1CN2CCC1CC2)c1cc2ccoc2cn1	> 200	200	5.73	5.89	5.88	5.78	5.86	5.86	5.65
O=C(N[C@@H](Cc1ccccc1)[C@@H](O)C(=O)N1C[C@@H](O)[C@@H](O)C1)c1cc2cc(Cl)ccc2[nH]1 [Ingliforib]	> 200	100	5.94	5.79	5.75	5.85	5.79	5.46	5.44
CNc1cnn(-c2cccc(C(F)(F)F)c2)c(=O)c1Cl [Norflurazon]	104	200	5.99	5.96	6.11	6.19	6.05	5.79	5.15
C=C(C)C(=O)[O][Sn]([CH2]CCC)([CH2]CCC)[CH2]CCC [Stannane, tributyl(2-methyl-1-oxo-2-propenyl)oxy-]	0.511	≤ 0.5	4.73	4.66	3.93	3.57	3.8	3.85	3.56
CC1(C)C(=O)N(Br)C(=O)N1Br [1,3-Dibromo-5,5-dimethylhydantoin]	> 200	200	5.7	5.78	5.81	5.86	5.87	5.87	5.61
CCCCSP(=O)(SCCCC)SCCCC [Tribufos]	5.32	5	5.81	5.73	5.58	3.53	3.25	3.33	4.2
C[C@]12CC[C@@H]3c4ccc(O)cc4CC[C@H]3[C@@H]1CC[C@@H]2O [beta-Estradiol]	188	200	5.85	5.81	5.8	5.84	5.75	5.94	5.2
O=[N+]([O-])c1ccccc1 [Nitrobenzene]	193	200	6.01	5.97	6.01	6.12	6.23	6.14	5.65
COc1cccc(-c2ccc(/C=C\CN3CCCCCC3)cc2Cl)c1	90.6	5	5.88	5.69	5.61	5.5	4.98	4.39	
CC(C)N1C(=O)N(c2ccccc2)CS/C1=N\C(C)(C)C [Buprofezin]	181	200	5.88	5.75	5.68	5.8	5.93	6.04	3.51
O=C1CN(/N=C/c2ccc([N+](=O)[O-])o2)C(=O)N1 [Nitrofurantoin]	> 200	200	5.9	5.88	5.88	5.88	5.81	5.84	5.46
CC(C)Oc1cccc(NC(=O)c2ccccc2C(F)(F)F)c1 [Flutolanil]	192	200	5.94	5.98	6.08	6.01	5.5	6.3	5.43

SMILES	AC50 for larval growth inhibition [1] [µM]	lowest effective concentration [2] [µM]	mean nematode size ln(EXT) (ln) ([3]; 0.5 µM)	mean nematode size ln(EXT) (ln) ([3]; 1 µM)	mean nematode size ln(EXT) (ln) ([3]; 5 µM)	mean nematode size ln(EXT) (ln) ([3]; 10 µM)	mean nematode size ln(EXT) (ln) ([3]; 50 µM)	mean nematode size ln(EXT) (ln) ([3]; 100 µM)	mean nematode size ln(EXT) (ln) ([3]; 200 µM)
CC(C)Nc1nc(Cl)nc(NC(C)C)n1 [Propazine]	102	200	5.99	6.05	6.03	6.09	6.04	5.83	5.55
O=C1c2ccccc2C(=O)N1SC(Cl)(Cl)Cl [Folpet]	> 200	50	5.89	5.98	5.57	5.84	5.53	5.55	5.09
CCCCCCCCCCCCCCCS(=O)(=O)Oc1ccccc1 [C10-21 sulfonic acids phenyl esters]	169	200	6.06	6.02	5.89	6	5.93	5.96	3.65
CN(C[C@@H](CC[N+]12CCC(C3CCCCC3)(CC1)CC2)c1ccc(Cl)c(Cl)c1)C(=O)c1cc(C(F)(F)F)cc(C(F)(F)F)c1	22.8	50	5.87	6.12	5.97	5.76	3.96	3.97	3.56
CC[C@H](NC(=O)c1cc(F)ccc1NS(=O)(=O)c1cccc2cccnc12)c1ccccc1	57.4	10	5.88	5.83	5.85	5.52	4.56	4.28	3.77
CCSC(=O)N(CC(C)C)CC(C)C [Butylate]	196	200	5.97	5.89	6.11	5.97	6.05	6.06	5.65
O=C(O)c1cccc(C(=O)O)c1 [Isophthalic acid]	> 200	200	5.93	5.83	5.85	5.87	5.8	5.82	4.8
Cc1c(F)c(F)c(COC(=O)[C@@H]2[C@H](/C=C(\Cl)C(F)(F)F)C2(C)C)c(F)c1F (racemic) [Tefluthrin]	> 200	50	5.7	5.77	5.71	5.79	5.39	5.29	5.13
O=C=NCCCCCCN=C=O [1,6-Diisocyanatohexane]	> 200	200	5.82	5.86	5.84	5.84	5.94	5.93	5.66
c1ccc2c(c1)ccc1ccccc12 [Phenanthrene]	5.56	10	5.95	5.89	5.84	3.51	3.73	4.1	3.29
CCOc1ccc(C(C)(C)COCc2cccc(Oc3ccccc3)c2)cc1 [Etofenprox]	52.2	100	5.87	5.88	5.91	5.71	5.81	5.39	5.47
COCCOc1cc2cc(C(=O)NC3CCN(C(C)C)CC3)n(CC(=O)Nc3ccc(Cl)cn3)c2cn1	47.5	50	5.85	5.84	5.82	5.77	4.98	4.13	5.19
Clc1cccc(Cl)c1Cl [1,2,3-Trichlorobenzene]	122	200	6.08	6.04	6.06	6.07	6.02	5.98	3.55
CCN(Cc1cccnc1)C(=O)c1cccc(Cl)c1[C@]1(C)C(=O)N(Cc2ccc(OC)cc2OC)c2ccc(Cl)cc21	3.78	10	5.85	5.78	5.8	5.4	5.54	5.37	5.39
CC(=O)NC1(c2cccc(F)c2)CCN(CC[C@@]2(c3ccc(Cl)c(Cl)c3)CN(c3ccccc3)C(=O)CO2)CC1	> 200	100	5.89	5.91	5.85	5.88	5.82	5.52	5.02
COP(=S)(OC)Oc1nc(Cl)c(Cl)cc1Cl [Chlorpyrifos-methyl]	96.8	100	6.24	6.29	6.3	6.17	5.93	4.68	3.59
O=c1[nH]cc(F)c(=O)[nH]1 [5-Fluorouracil]	162	50	5.8	5.84	5.91	5.82	5.63	5.3	4.19
Sc1nc2ccccc2s1 [2-Mercaptobenzothiazole]	> 200	100	5.83	5.81	5.8	5.76	5.69	5.59	5.57
